Source: publication PMC7224190, “Pharmacological inhibition of PRMT7 links arginine monomethylation to the cellular stress response” (Nature Communications, 2020)

What was measured:
Experiment in all cases: biochemical
Parameters in all cases: radiometric methyltransferase selectivity assay with tritiated SAM, per cent activity
Conditions in all cases: read-out: % of control remaining
DOT1L = DOT1L (Homo sapiens, UniProt Q8TEK3)
Procedure: (§1) The methyltransferase selectivity was assessed at two compound concentrations of 1 and 10 μM by radiometric assays using tritiated-SAM. For methyltransferases: MLL1, MLL3, EZH1 (PRC2), and EZH2 (PRC2), G9a, GLP, SUV39H1, SUV39H2, SUV420H1, SUV420H2, SETD2, SETD8, SETDB1, SETD7, PRMT1, PRMT3, PRMT4, PRMT5/ MEP50 complex, PRMT6, PRMT7, PRMT8, PRMT9, PRDM9, SMYD2, SMYD3, DNMT1, and BCDIN3D the incorporation of a tritium-labeled methyl group into biotinylated substrate was monitored using scintillation proximity assay (SPA). Briefly, a 10 μL reaction containing ^3H-SAM and substrate at concentrations close to the apparent Km values for each enzyme (balanced conditions) was prepared. The reactions were quenched with 10 μL of 7.5 M guanidine hydrochloride; 180 μL of 20 mM Tris buffer (pH 8.0) were added, and the mixture was transferred to a 96-well FlashPlate and incubated for 1 h. The counts per minute (CPM) was measured on a TopCount plate reader. The CPM in the absence of compound or enzyme was defined as 100% activity and background (0%), respectively, for each dataset[74]–[76]. Selectivity of SGC8158 against 342 kinases was evaluated in a kinase panel TR-FRET assay at 1 and 0.1 μM compound in duplicates as described before. Briefly, tagged kinases were incubated with compound and staurosporine-based fluorescent probe where the binding was detected using Tb conjugated anti-tag antibody energy transfer to the probe. Excitation wavelength was 337 nm and fluorescent emission signal was measured for Tb (486 nm) and fluorescent probe (BODIPY, 515 nm). Specific and non-specific binding was determined in the absence and presence of unlabeled staurosporine.

METTL3-14 = METTL3-14 (Homo sapiens, UniProt Q86U44)
Procedure: as §1

NSD3 = target: T1, NSD3 (Homo sapiens, UniProt Q9BZ95)
T1 sequence (Q9BZ95 1-1437): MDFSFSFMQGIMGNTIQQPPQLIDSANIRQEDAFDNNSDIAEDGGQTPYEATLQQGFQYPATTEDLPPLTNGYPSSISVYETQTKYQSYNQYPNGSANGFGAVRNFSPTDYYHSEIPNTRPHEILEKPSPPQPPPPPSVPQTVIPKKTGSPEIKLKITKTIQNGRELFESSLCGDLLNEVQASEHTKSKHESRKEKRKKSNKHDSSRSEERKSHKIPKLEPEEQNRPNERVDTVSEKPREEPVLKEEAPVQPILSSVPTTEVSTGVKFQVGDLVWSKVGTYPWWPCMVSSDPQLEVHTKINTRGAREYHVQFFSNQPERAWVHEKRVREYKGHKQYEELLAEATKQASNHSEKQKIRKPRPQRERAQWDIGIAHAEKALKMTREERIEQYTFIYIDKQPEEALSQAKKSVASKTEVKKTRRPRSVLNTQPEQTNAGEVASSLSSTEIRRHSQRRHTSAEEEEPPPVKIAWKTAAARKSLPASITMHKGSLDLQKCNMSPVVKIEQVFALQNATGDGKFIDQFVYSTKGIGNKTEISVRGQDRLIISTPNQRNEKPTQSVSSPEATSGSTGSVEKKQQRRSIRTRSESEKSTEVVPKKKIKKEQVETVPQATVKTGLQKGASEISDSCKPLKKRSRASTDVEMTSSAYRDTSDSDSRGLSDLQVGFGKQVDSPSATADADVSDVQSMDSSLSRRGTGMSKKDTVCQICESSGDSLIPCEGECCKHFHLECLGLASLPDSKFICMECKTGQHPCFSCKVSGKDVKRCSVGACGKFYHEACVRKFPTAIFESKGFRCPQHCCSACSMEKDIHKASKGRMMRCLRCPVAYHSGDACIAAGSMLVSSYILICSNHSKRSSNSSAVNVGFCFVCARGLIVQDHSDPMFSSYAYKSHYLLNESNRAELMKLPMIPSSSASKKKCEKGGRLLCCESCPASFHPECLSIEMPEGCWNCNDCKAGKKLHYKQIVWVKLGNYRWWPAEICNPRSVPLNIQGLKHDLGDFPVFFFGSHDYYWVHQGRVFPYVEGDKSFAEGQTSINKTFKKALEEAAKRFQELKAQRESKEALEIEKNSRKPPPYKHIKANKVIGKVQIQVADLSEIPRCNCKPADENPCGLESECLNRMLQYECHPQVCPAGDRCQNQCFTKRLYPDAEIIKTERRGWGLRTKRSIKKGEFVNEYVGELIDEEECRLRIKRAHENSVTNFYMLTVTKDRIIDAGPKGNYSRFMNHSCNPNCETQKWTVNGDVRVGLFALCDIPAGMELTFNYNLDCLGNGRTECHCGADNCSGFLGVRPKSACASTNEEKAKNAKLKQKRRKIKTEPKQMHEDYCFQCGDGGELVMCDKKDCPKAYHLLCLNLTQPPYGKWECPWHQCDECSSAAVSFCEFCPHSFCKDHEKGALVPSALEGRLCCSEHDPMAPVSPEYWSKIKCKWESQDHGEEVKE
Procedure: as §1

PRMT6 = PRMT6 (Homo sapiens, UniProt Q96LA8)
Procedure: as §1

Sequence of DOT1L (Q8TEK3 whole entry): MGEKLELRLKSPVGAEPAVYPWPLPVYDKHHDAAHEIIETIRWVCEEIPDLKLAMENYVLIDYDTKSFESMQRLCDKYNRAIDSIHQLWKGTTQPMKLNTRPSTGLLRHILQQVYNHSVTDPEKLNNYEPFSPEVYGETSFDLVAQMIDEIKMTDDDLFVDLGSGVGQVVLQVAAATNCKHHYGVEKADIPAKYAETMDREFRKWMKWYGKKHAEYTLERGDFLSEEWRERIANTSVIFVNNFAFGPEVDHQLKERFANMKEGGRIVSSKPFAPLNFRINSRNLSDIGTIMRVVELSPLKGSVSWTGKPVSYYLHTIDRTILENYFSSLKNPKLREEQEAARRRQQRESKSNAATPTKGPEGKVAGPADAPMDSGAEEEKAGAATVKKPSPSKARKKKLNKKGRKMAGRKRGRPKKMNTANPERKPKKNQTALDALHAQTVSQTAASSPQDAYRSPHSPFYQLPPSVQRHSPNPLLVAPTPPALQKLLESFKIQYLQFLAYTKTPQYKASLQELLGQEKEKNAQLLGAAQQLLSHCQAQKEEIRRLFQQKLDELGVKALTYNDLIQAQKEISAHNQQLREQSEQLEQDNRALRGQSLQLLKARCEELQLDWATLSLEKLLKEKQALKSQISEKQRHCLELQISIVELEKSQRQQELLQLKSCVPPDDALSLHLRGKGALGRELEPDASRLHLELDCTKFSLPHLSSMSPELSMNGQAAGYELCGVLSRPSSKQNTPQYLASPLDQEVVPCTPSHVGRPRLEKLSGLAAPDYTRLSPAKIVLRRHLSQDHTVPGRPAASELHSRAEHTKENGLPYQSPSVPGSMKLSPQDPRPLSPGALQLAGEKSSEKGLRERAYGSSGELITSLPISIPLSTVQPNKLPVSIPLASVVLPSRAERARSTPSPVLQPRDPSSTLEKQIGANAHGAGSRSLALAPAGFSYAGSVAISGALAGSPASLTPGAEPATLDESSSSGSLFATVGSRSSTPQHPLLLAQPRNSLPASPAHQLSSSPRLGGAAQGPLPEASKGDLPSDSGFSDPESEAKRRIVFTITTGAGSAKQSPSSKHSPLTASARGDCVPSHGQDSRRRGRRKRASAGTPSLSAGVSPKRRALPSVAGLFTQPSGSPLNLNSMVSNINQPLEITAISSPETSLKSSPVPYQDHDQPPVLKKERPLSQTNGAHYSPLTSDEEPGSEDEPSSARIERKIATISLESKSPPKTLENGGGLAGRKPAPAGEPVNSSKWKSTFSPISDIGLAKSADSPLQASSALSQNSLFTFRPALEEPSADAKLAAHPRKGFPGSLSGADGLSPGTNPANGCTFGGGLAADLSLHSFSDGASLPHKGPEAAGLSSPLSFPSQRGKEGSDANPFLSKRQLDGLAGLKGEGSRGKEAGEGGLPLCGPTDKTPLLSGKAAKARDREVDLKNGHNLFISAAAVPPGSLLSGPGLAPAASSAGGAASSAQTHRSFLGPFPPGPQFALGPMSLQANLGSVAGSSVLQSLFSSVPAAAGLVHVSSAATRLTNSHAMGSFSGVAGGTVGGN
Sequence of PRMT6 (Q96LA8 whole entry): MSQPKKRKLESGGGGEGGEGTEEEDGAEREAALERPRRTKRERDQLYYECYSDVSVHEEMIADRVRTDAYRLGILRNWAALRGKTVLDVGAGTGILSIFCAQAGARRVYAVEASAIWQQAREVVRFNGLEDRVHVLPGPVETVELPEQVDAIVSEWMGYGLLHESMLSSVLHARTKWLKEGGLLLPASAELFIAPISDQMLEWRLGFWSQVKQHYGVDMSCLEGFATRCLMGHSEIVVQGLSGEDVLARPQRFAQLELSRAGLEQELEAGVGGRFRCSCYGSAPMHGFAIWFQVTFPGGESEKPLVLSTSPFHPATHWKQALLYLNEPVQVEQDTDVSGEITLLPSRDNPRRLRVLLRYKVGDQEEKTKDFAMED
Sequence of METTL3-14 (Q86U44 whole entry): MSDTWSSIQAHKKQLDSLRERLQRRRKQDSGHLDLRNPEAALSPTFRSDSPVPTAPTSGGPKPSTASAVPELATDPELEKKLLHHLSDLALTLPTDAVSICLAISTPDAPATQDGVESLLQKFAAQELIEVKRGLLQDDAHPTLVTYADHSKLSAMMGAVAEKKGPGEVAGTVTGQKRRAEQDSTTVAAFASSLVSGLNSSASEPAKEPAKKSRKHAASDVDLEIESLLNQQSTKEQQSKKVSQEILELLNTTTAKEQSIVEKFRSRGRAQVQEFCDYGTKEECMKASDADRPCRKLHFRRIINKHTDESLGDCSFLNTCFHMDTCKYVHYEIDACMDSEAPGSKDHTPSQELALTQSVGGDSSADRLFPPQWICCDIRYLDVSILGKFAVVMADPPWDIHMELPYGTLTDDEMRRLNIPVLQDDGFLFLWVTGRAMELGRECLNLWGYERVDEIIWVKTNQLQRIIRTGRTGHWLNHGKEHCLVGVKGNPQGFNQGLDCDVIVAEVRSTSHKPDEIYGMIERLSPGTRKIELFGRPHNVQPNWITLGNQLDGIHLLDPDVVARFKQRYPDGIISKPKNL
Sequence of METTL3-14 (Q9HCE5 whole entry partner): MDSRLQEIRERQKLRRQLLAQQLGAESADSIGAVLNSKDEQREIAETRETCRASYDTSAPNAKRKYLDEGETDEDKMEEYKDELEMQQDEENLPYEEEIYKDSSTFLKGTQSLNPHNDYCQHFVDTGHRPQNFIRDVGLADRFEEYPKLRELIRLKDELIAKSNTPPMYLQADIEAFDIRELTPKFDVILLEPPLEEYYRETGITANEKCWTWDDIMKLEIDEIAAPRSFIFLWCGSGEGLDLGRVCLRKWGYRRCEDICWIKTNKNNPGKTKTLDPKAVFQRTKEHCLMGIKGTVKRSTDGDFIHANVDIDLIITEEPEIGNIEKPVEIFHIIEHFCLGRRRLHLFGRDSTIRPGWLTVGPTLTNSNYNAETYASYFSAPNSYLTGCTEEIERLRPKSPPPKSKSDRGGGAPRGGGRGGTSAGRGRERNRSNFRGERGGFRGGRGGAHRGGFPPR

CC1(C)O[C@@H]2[C@H](O1)[C@@H](CSCCCCNCc1cccc(-c3ccc(Cl)cc3)c1)O[C@H]2n1cnc2c(N)ncnc21 [SGC8158N]
remaining activity at 1 µM (DOT1L): 97% | remaining activity at 10 µM (DOT1L): 95% | remaining activity at 1 µM (METTL3-14): 87% | remaining activity at 10 µM (METTL3-14): 73% | remaining activity at 1 µM (NSD3): 100% | remaining activity at 10 µM (NSD3): 97% | remaining activity at 1 µM (PRMT6): 94% | remaining activity at 10 µM (PRMT6): 87%

Nc1ncnc2c1ncn2[C@@H]1O[C@H](CSCCCCNCc2cccc(-c3ccc(Cl)cc3)c2)[C@@H](O)[C@H]1O [SGC8158]
remaining activity at 1 µM (DOT1L): 58% | remaining activity at 10 µM (DOT1L): 13% | remaining activity at 1 µM (METTL3-14): 97% | remaining activity at 10 µM (METTL3-14): 84% | remaining activity at 1 µM (NSD3): 97% | remaining activity at 10 µM (NSD3): 95% | remaining activity at 1 µM (PRMT6): 100% | remaining activity at 10 µM (PRMT6): 58%
